In brackets after ≈: the same amount, converted by molar mass.
Experiments:
[1] = Antithrombotic activity in New Zealand white rabbit platelet poor plasma assessed as prolongation of thrombin time at 100 uM incubated for 3 mins by coagulometer based assay; format: functional, Oryctolagus cuniculus
[2] = Antithrombotic activity in New Zealand white rabbit platelet poor plasma assessed as increase in activated partial thromboplastin time at 100 uM incubated for 3 mins by coagulometer based assay; format: functional, Oryctolagus cuniculus
[3] = Antithrombotic activity in New Zealand white rabbit platelet poor plasma assessed as increase in prothrombin time at 100 uM incubated for 3 mins by coagulometer based assay; format: functional, Oryctolagus cuniculus
[4] = Antithrombotic activity in New Zealand white rabbit platelet poor plasma assessed as fibrinogen at 100 uM incubated for 3 mins by coagulometer based assay; format: functional, Oryctolagus cuniculus
[5] = Antioxidant activity assessed as DPPH radical scavenging by spectrophotometric analysis; format: physicochemical
[6] = Neuroprotective activity against H2O2-induced cytotoxicity in rat PC12 cells assessed as cell viability at 50 uM by MTT assay; format: functional; conditions: PC-12, read-out: INH
[7] = Neuroprotective activity against H2O2-induced cytotoxicity in rat PC12 cells assessed as cell viability at 25 uM by MTT assay; format: functional; conditions: PC-12, read-out: INH
[8] = Solubility of compound in water at 0.1 to 10 ug/ml by UV spectrophotometry; format: physicochemical
[9] = Solubility of compound in water at 0.1 to 10 ug/ml by UV spectrophotometry relative to scutellarein; format: physicochemical; conditions: buffer

IC50 [5] | solubility [8] | fold change (FC) [9] | Structure (SMILES) | TT [1] | APTT [2] | PT [3] | Activity [4] | cell viability at 50 µM [6] | neuroprotection (% cell viability vs H2O2 cytotoxicity) at 25 µM [7]
32.6 µM | 9.23 µg/mL (≈ 24 µM) | 1.35 | CCN(CC)C(=O)Oc1ccc(-c2cc(=O)c3c(O)c(O)c(O)cc3o2)cc1 | 24.36 s | 28.2 s | 7.67 s | 5.21 g/L | 75.2% | 51.3%
80.7 µM | 9.32 µg/mL (≈ 25.1 µM) | 1.36 | CN(C)C(=O)COc1ccc(-c2cc(=O)c3c(O)c(O)c(O)cc3o2)cc1 | 22.27 s | 29.25 s | 7.17 s | 5.14 g/L | 68.1% | 46.5%
81.3 µM | 8.95 µg/mL (≈ 22.4 µM) | 1.31 | CCN(CC)C(=O)COc1ccc(-c2cc(=O)c3c(O)c(O)c(O)cc3o2)cc1 | 20.92 s | 26.4 s | 7.45 s | 5.37 g/L | 66.4% | 44.7%
215 µM | 9.28 µg/mL (≈ 26 µM) | 1.35 | CN(C)CCOc1ccc(-c2cc(=O)c3c(O)c(O)c(O)cc3o2)cc1 | 22.97 s | 29.97 s | 6.82 s | 5.11 g/L | 56.2% | 35.8%
264 µM | 9.4 µg/mL (≈ 23.5 µM) | 1.37 | O=c1cc(-c2ccc(OCCN3CCOCC3)cc2)oc2cc(O)c(O)c(O)c12 | 19.7 s | 29.05 s | 6.7 s | 5.23 g/L | 48.2% | 32.3%
205 µM | 8.68 µg/mL (≈ 22.5 µM) | 1.27 | CCN(CC)CCOc1ccc(-c2cc(=O)c3c(O)c(O)c(O)cc3o2)cc1 | 22.03 s | 30.45 s | 6.9 s | 5.72 g/L | 58.4% | 38.5%
231 µM | 8.5 µg/mL (≈ 22.9 µM) | 1.24 | CN(C)CCCOc1ccc(-c2cc(=O)c3c(O)c(O)c(O)cc3o2)cc1 | 19.9 s | 26.58 s | 6.15 s | 5.28 g/L | 52.2% | 33.6%
274 µM | 8.56 µg/mL (≈ 20.7 µM) | 1.25 | O=c1cc(-c2ccc(OCCCN3CCOCC3)cc2)oc2cc(O)c(O)c(O)c12 | 19.6 s | 28.25 s | 6.63 s | 5.42 g/L | 44.2% | 28.3%

Continued, compound first:

Structure (SMILES) | IC50 [5] | solubility [8] | fold change (FC) [9] | TT [1] | APTT [2] | PT [3] | Activity [4] | cell viability at 50 µM [6] | neuroprotection (% cell viability vs H2O2 cytotoxicity) at 25 µM [7]
CN(C)C(=O)Oc1ccc(-c2cc(=O)c3c(O)c(O)c(O)cc3o2)cc1 | 37.2 µM | 9.56 µg/mL (≈ 26.8 µM) | 1.4 | 24.3 s | 27.78 s | 8.1 s | 5.56 g/L | 71.2% | 48.7%
O=C(Oc1ccc(-c2cc(=O)c3c(O)c(O)c(O)cc3o2)cc1)N1CCOCC1 | 19.3 µM | 15.3 µg/mL (≈ 38.4 µM) | 2.34 | 24.62 s | 28.28 s | 8.55 s | 5.52 g/L | 94.2% | 73.9%
CC(C)N(C(=O)Oc1ccc(-c2cc(=O)c3c(O)c(O)c(O)cc3o2)cc1)C(C)C | 17 µM | 8.67 µg/mL (≈ 21 µM) | 1.27 | 24.57 s | 27.97 s | 7.97 s | 5.65 g/L | 93.4% | 71.7%
CN1CCN(C(=O)Oc2ccc(-c3cc(=O)c4c(O)c(O)c(O)cc4o3)cc2)CC1 | 18.9 µM | 15.1 µg/mL (≈ 36.5 µM) | 2.2 | 24.52 s | 26.87 s | 7.03 s | 5.42 g/L | 92.5% | 68.6%
O=C(COc1ccc(-c2cc(=O)c3c(O)c(O)c(O)cc3o2)cc1)N1CCOCC1 | 83.3 µM | 9.45 µg/mL (≈ 22.9 µM) | 1.38 | 19.9 s | 27.1 s | 7.33 s | 5.49 g/L | 64.6% | 43.4%
O=c1cc(-c2ccc(O)cc2)oc2cc(O)c(O)c(O)c12 [SCUTELLAREIN] | 22.6 µM | – | 1 | 24.4 s | 36.65 s | 5.93 s | 6.84 g/L | 91.2% | 64.6%
O=C(O)[C@H]1O[C@@H](Oc2cc3oc(-c4ccc(O)cc4)cc(=O)c3c(O)c2O)[C@H](O)[C@@H](O)[C@@H]1O [SCUTELLARIN] | 27.9 µM | – | – | 23.08 s | 34.18 s | 6.28 s | 6.13 g/L | 79.2% | 53.1%
